Reference: ChEMBL document CHEMBL4825679, “Water-Soluble Heliomycin Derivatives to Target i-Motif DNA” (J Nat Prod, 2021)
Calls of active or inactive are those of the source. The calls are words filed in the database; no cut-off is given here.

Columns and labels:
[1] = species: Homo sapiens; assay: Binding affinity to HIF1A DNA (unknown origin) assessed as stabilization of DNA by measuring change in melting temperature at 1 uM by FRET analysis
[2] = species: Homo sapiens; assay: Binding affinity to human TeloC DNA assessed as stabilization of DNA by measuring change in melting temperature at 1 uM by FRET analysis
[3] = species: Homo sapiens; assay: Binding affinity to DAP DNA (unknown origin) assessed as stabilization of DNA by measuring change in melting temperature at 1 uM by FRET analysis
[4] = species: Homo sapiens; assay: Binding affinity to ILPR DNA (unknown origin) assessed as stabilization of DNA by measuring change in melting temperature at 1 uM by FRET analysis
[5] = system: Quadruplex DNA; assay: Binding affinity to human G-quadruplex TeloG DNA assessed as stabilization of DNA by measuring change in melting temperature at 1 uM by FRET analysis; assay type: nucleic-acid assay
[6] = system: HeLa; assay: cells; details: Homo sapiens, 72 h
Description: Antiproliferative activity against human HeLa cells assessed as growth inhibition after 72 hrs by MTT assay

[7] = system: CCRF-CEM; assay: cells; details: Homo sapiens, 72 h
Description: Antiproliferative activity against human CEM cells assessed as growth inhibition after 72 hrs by MTT assay

[8] = system: L1210; assay: cells; details: Mus musculus, L1210, 72 h
Description: Antiproliferative activity against mouse L1210 cells assessed as growth inhibition after 72 hrs by MTT assay

[9] = species: Homo sapiens; assay: Binding affinity to cMYC DNA (unknown origin) assessed as stabilization of DNA by measuring change in melting temperature at 1 uM by FRET analysis
[10] = Binding affinity to NASG DNA (unknown origin) assessed as stabilization of DNA by measuring change in melting temperature at 1 uM by FRET analysis
[11] = system: HMEC-1; assay: Cytotoxicity against human HMEC-1 cells assessed as growth inhibition after 72 hrs by MTT assay; assay type: cell-based; details: HMEC-1, 72 h
[12] = system: DNA; assay: Binding affinity to double strand DNA (unknown origin) assessed as stabilization of DNA by measuring change in melting temperature at 1 uM by FRET analysis; assay type: nucleic-acid assay; details: Homo sapiens

ΔTm [1] | Activity [2] | Activity [3] | ΔTm [4] | ΔTm [5] | IC50 [6] | IC50 [7] | IC50 [8] | ΔTm [9] | ΔTm [10] | ΔTm [12] | SMILES | IC50 [11]
10 °C | inactive | inactive | 17 °C | 5 °C | 800 nM | 800 nM | 800 nM | 25 °C | 4 °C | 6 °C | COc1cc2c3c4c(c(NCCN)cc(C)c14)C(=O)c1c(O)cc(O)c(c1-3)C(=O)C2(C)C | 700 nM
 |  |  |  |  | 1600 nM | 2100 nM | 200 nM |  |  |  | Cc1cc(NCCN)c2c3c4c(cc(O)c13)C(C)(C)C(=O)c1c(O)cc(O)c(c1-4)C2=O | 1200 nM
 |  |  |  |  |  |  |  |  |  |  | COc1cccc2c1C(=O)c1c(O)c3c(c(O)c1C2=O)C[C@@](O)(C(=O)CO)C[C@@H]3O[C@H]1C[C@H](N)[C@H](O)[C@H](C)O1 [DOXORUBICIN] | 100 nM
